The test concerns the target T1, SMYD3 (Homo sapiens, UniProt Q9H7B4).
T1 sequence (Q9H7B4 1-428): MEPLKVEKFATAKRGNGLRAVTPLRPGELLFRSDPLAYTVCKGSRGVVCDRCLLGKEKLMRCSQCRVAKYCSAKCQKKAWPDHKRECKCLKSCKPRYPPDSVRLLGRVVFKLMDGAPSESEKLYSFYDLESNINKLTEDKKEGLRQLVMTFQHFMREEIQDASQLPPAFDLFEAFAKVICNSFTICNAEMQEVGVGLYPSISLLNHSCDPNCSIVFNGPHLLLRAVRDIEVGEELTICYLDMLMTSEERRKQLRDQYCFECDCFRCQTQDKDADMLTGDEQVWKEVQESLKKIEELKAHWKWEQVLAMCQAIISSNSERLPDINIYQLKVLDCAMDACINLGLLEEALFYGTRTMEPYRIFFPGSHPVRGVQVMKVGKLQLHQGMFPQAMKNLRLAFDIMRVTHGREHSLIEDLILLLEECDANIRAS
Put plainly: SMYD3 biochemical assay (MTase-Glo, MAP3K2 peptide substrate). The conditions noted are these: for IC50: Table 3, MTase assay, MAP3K2 peptide substrate, read-out: IC50. In short, it runs like this:
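Luminescent readout of SAH production (coupled SAH→ATP conversion, MTase-Glo) after SMYD3 reacted 30 min at room temperature with 1.0 µM SAM and 10 µM MAP3K2 peptide, both final. Non-linear regression gave IC50 values.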

Structures are written as SMILES.

Turning to `CCCOC(=O)N1CCN(C(=O)c2ccc3c(Cl)cc(-c4ccc(OC)c(CO)c4)nc3c2)CC1` [B100, Propyl 4-(4-chloro-2-(3-(hydroxymethyl)-4-methoxyphenyl)quinoline-7-carbonyl)piperazine-1-carboxylate], the IC50 is 110 nM.
As to `CCCOC(=O)N1CCN(C(=O)c2ccc3c(Cl)cc(-c4cccs4)nc3c2)CC1` [B084, Propyl 4-(4-chloro-2-(thiophen-2-yl)quinoline-7-carbonyl)piperazine-1-carboxylate], the IC50 worked out at 540 nM.
Still for that read-out and setting: as for `CCCOC(=O)N1CCN(C(=O)c2ccc3c(Cl)cc(-c4cccc(F)c4)nc3c2)CC1` [B049, Propyl 4-(4-chloro-2-(3-fluorophenyl)quinoline-7-carbonyl)piperazine-1-carboxylate], the figure is 1000 nM.
Regarding `CNC(=O)c1ccc(-c2cc(Cl)c3ccc(C(=O)N4CCN(C(=O)OCCCF)[C@H](C)C4)cc3n2)cc1` [B233, 3-Fluoropropyl (R)-4-(4-chloro-2-(4-(methylcarbamoyl)phenyl)quinoline-7-carbonyl)-2-methylpiperazine-1-carboxylate], the IC50 turned out to be 160 nM.
The same measure, in the same setting: as for `CCCOC(=O)N1CCN(C(=O)c2ccc3c(Cl)cc(-c4ccccc4)nc3c2)C[C@@H]1C` [B018, Propyl (S)-4-(4-chloro-2-phenylquinoline-7-carbonyl)-2-methylpiperazine-1-carboxylate], the figure is 130 nM; as for `C[C@@H]1CN(C(=O)c2ccc3c(Cl)cc(-c4ccn(C)c4)nc3c2)CCN1C(=O)OCCCF` [B234, 3-Fluoropropyl (R)-4-(4-chloro-2-(1-methyl-1H-pyrrol-3-yl)quinoline-7-carbonyl)-2-methylpiperazine-1-carboxylate], 98 nM.
Consider `CCCOC(=O)N1CCN(C(=O)c2ccc3c(Cl)cc(-c4ccc5cnn(C)c5c4)nc3c2)CC1` [B195, Propyl 4-(4-chloro-2-(1-methyl-1H-indazol-6-yl)quinoline-7-carbonyl)piperazine-1-carboxylate], for which the IC50 worked out at 250 nM.
On to `CCCOC(=O)N1CCN(C(=O)c2ccc3c(Cl)cc(-c4ccc(F)c(CO)c4)nc3c2)CC1` [B150], for which the IC50 stood at 280 nM.
`NC(=O)C1CCN(CC(=O)Nc2ccc(Br)cc2)CC1` [BCI-121, reference compound]: the “activity against SMYD3” value was “inactive”.
For `CCCOC(=O)N1CCN(C(=O)c2ccc3c(Cl)c4c(nc3c2)CC(c2ncccc2F)CC4)C[C@@H]1C` (stereo partly drawn) [A124, Propyl (2S)-4-(9-chloro-6-(3-fluoropyridin-2-yl)-5,6,7,8-tetrahydroacridine-3-carbonyl)-2-methylpiperazine-1-carboxylate], the IC50 is 340 nM.
On the same count and under the same terms, the value for `CCCOC(=O)N1CCN(C(=O)c2ccc3c(Cl)cc(-c4ccc(OC)c(CNC)c4)nc3c2)CC1` [B120, Propyl 4-(4-chloro-2-(4-methoxy-3-((methylamino)methyl)phenyl)quinoline-7-carbonyl)piperazine-1-carboxylate] was 35 nM; that for `CCCOC(=O)N1CCN(C(=O)c2ccc3c(Cl)cc(-c4cnn(CC(F)(F)F)c4)nc3c2)CC1` [B274, Propyl 4-(4-chloro-2-(1-(2,2,2-trifluoroethyl)-1H-pyrazol-4-yl)quinoline-7-carbonyl)piperazine-1-carboxylate] was 210 nM.
As for `NCc1cc(-c2cc(Cl)c3ccc(C(=O)N4CCN(C(=O)c5cn(C6CC6)nn5)CC4)cc3n2)ccc1F` [E019, (2-(3-(Aminomethyl)-4-fluorophenyl)-4-chloroquinolin-7-yl)(4-(1-cyclopropyl-1H-1,2,3-triazole-4-carbonyl)piperazin-1-yl)methanone], the IC50 was 39 nM.
On the same count and under the same terms, as for `CCCOC(=O)N1CCN(C(=O)c2ccc3c(Cl)cc(-c4ccc(CN)c(C)c4)nc3c2)CC1` [B108, Propyl 4-(2-(4-(aminomethyl)-3-methylphenyl)-4-chloroquinoline-7-carbonyl)piperazine-1-carboxylate], the figure is 120 nM; as for `CCCOC(=O)N1CCN(C(=O)c2ccc3c(Cl)c(C)c(-c4ccccc4C)nc3c2)CC1` [B027, Propyl 4-(4-chloro-3-methyl-2-(o-tolyl)quinoline-7-carbonyl)piperazine-1-carboxylate], 1200 nM; as for `CCCOC(=O)N1CCN(C(=O)c2ccc3c(Cl)c4c(nc3c2)CCC(CC(=O)OC)C4)C[C@H]1C` (stereo partly drawn) [A063, Propyl (2R)-4-(9-chloro-7-(2-methoxy-2-oxoethyl)-5,6,7,8-tetrahydroacridine-3-carbonyl)-2-methylpiperazine-1-carboxylate], 250 nM.
Turning to `CCCOC(=O)N1CC2CCCC1CN2C(=O)c1ccc2c(Cl)c3c(nc2c1)CCCC3` (centres unmarked) [A080, Propyl 8-(9-chloro-5,6,7,8-tetrahydroacridine-3-carbonyl)-6,8-diazabicyclo[3.2.2]nonane-6-carboxylate], the IC50 was determined as 170 nM.
As for `CCCOC(=O)N1CCN(C(=O)c2ccc3c(Cl)cc(-c4ccc(C)nc4)nc3c2)C[C@H]1C` [B177, Propyl (R)-4-(4-chloro-2-(6-methylpyridin-3-yl)quinoline-7-carbonyl)-2-methylpiperazine-1-carboxylate], the IC50 came out at 360 nM.
Same read-out and setting: the value for `CCCOC(=O)N1CCN(C(=O)c2ccc3c(Cl)c4c(nc3c2)CC(c2ccnc(C#N)n2)CC4)CC1` (centres unmarked) [A148, Propyl 4-(9-chloro-6-(2-cyanopyrimidin-4-yl)-5,6,7,8-tetrahydroacridine-3-carbonyl)piperazine-1-carboxylate] was 300 nM; that for `C=CCC1CCCc2c1nc1cc(C(=O)N3CCN(C(=O)OCCC)CC3)ccc1c2Cl` (centres unmarked) [A146, Propyl 4-(5-allyl-9-chloro-5,6,7,8-tetrahydroacridine-3-carbonyl)piperazine-1-carboxylate] was 560 nM.
Regarding `CCCOC(=O)N1CCN(C(=O)c2ccc3c(Cl)c4c(nc3c2)CC(c2ncccc2C)CC4)CC1` (centres unmarked) [A096, Propyl 4-(9-chloro-6-(3-methylpyridin-2-yl)-5,6,7,8-tetrahydroacridine-3-carbonyl)piperazine-1-carboxylate], the IC50 was 1200 nM.
As to `CCCOC(=O)N1CCN(C(=O)c2ccc3c(Cl)cc(-c4ccc(N(C)C)cc4)nc3c2)[C@@H](C)C1` [B076, Propyl (S)-4-(4-chloro-2-(4-(dimethylamino)phenyl)quinoline-7-carbonyl)-3-methylpiperazine-1-carboxylate], the IC50 turned out to be 190 nM.
For `O=C(c1ccc2c(Cl)cc(-c3ccccc3)nc2c1)N1CCN(C(=O)c2cnn(C3CC3)c2)CC1` [D011, (4-Chloro-2-phenylquinolin-7-yl)(4-(1-cyclopropyl-1H-pyrazole-4-carbonyl)piperazin-1-yl)nethanone], the IC50 came to 200 nM.
In the case of `CCCOC(=O)N1CCN(C(=O)c2ccc3c(Cl)cc(-c4ccc(COCCOC)cc4)nc3c2)CC1` [B224, Propyl 4-(4-chloro-2-(4-((2-methoxyethoxy)methyl)phenyl)quinoline-7-carbonyl)piperazine-1-carboxylate], the IC50 turned out to be 800 nM.
Consider `CCCOC(=O)N1CCN(C(=O)c2ccc3c(Cl)cc(-c4ccc(NC(C)=O)nc4)nc3c2)CC1` [B149, Propyl 4-(2-(6-acetamidopyridin-3-yl)-4-chloroquinoline-7-carbonyl)piperazine-1-carboxylate], for which the IC50 worked out at 110 nM.
The same measure, in the same setting: the value for `CCCOC(=O)N1CCN(C(=O)c2ccc3c(Cl)cc(-c4ccc5[nH]nc(C)c5c4)nc3c2)C[C@H]1C` [B197, Propyl (R)-4-(4-chloro-2-(3-methyl-1H-indazol-5-yl)quinoline-7-carbonyl)-2-methylpiperazine-1-carboxylate] was 100 nM.

The record behind these values is patent publication US20190071416A1, “COMPOUNDS FOR TREATMENT OF CANCER AND EPIGENETICS” (Agency For Science, Technology and Research, priority 2015, published 2019).
